Patent US20260274814A1, “THIENYL COMPOUNDS FOR THE TREATMENT OF A CENTRAL NERVOUS SYSTEM DISEASE OR DISORDER” (Coreterra Therapeutics, Inc., priority 2023, published 2026)
Structures can show the parent of a compound that is named as a salt.

Tested on: mice
Experiment: Neuropharmacological Assay (SmartCube): automated behavioral signature of compound-treated mice compared with a database of reference drug classes
Type: in vivo
Conditions: for minimal effective dose: Mus musculus, ip, minimal effective dose: dose having 45% or more total activity in SmartCube, i.p., if only one dose tested, that dose is shown, read-out: MED; for AD / AG / AN / AP / AX / CE / HL / MS / PS / SH / UK: SmartCube class probability, 3.0 mg/kg i.p., 15 min before test
Method in brief: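 Probabilities reflect how closely the digitally recorded behavioural signature at 3.0 mg/kg i.p. matched each reference class (antipsychotic, anxiolytic, antidepressant etc.). Dosing occurred 15 min before testing. Minimal effective dose was the dose giving 45% or more total activity.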

SMILES | minimal effective dose | AD | AG | AN | AP | AX | CE | HL | MS | PS | SH | UK
CNC1CCc2scc(C3CC3)c2C1 (stereo not drawn) [Compound 201, 3-cyclopropyl-N-methyl-4,5,6,7-tetrahydrobenzothiophen-5-amine hydrochloride] | 3 mg/kg | ND (^ <4%) | ND (^ <4%) | ND (^ <4%) | ND (^ <4%) | + (≥4%) | ND (^ <4%) | ND (^ <4%) | ND (^ <4%) | ND (^ <4%) | ND (^ <4%) | ++ (≥24%)
CNC1COc2c(sc(C)c2C)C1 (stereo not drawn) [Compound 202, N, 2,3-trimethyl-6,7-dihydro-5H-thieno[3,2-b]pyran-6-amine hydrochloride] | 3 mg/kg | + (≥4%) | ND (^ <4%) | ND (^ <4%) | ++ (≥24%) | ++ (≥24%) | ND (^ <4%) | ND (^ <4%) | ND (^ <4%) | ND (^ <4%) | ND (^ <4%) | ND (^ <4%)
Cc1sc(F)c2c1CC(N)CC2 (stereo not drawn) [Compound 203, 1-fluoro-3-methyl-4,5,6,7-tetrahydro-2-benzothiophen-5-amine hydrochloride] | 3 mg/kg | ND (^ <4%) | ND (^ <4%) | ND (^ <4%) | ND (^ <4%) | ND (^ <4%) | ND (^ <4%) | ND (^ <4%) | ND (^ <4%) | ND (^ <4%) | ND (^ <4%) | +++ (≥49%)
N#Cc1scc2c1CC(N)CC2 (stereo not drawn) [Compound 204, 6-amino-4,5,6,7-tetrahydro-2-benzothiophene-1-carbonitrile hydrochloride] | 3 mg/kg | ND (^ <4%) | ND (^ <4%) | ND (^ <4%) | ++++ (≥74%) | ND (^ <4%) | ND (^ <4%) | ND (^ <4%) | ND (^ <4%) | ND (^ <4%) | ND (^ <4%) | ND (^ <4%)
NC1CCc2scc(C3CC3)c2C1 (stereo not drawn) [Compound 205, 3-cyclopropyl-4,5,6,7-tetrahydrobenzothiophen-5-amine hydrochloride] | > 3 mg/kg | ND (^ <4%) | ND (^ <4%) | ND (^ <4%) | ND (^ <4%) | ND (^ <4%) | ND (^ <4%) | ND (^ <4%) | ND (^ <4%) | ND (^ <4%) | ND (^ <4%) | ++ (≥24%)
CNC1CCc2scc(C3CCC3)c2C1 (stereo not drawn) [Compound 206, 3-cyclobutyl-N-methyl-4,5,6,7-tetrahydrobenzothiophen-5-amine hydrochloride] | 3 mg/kg | ND (^ <4%) | ND (^ <4%) | ND (^ <4%) | ND (^ <4%) | ND (^ <4%) | ND (^ <4%) | ND (^ <4%) | ND (^ <4%) | ND (^ <4%) | ND (^ <4%) | ++ (≥24%)
CCc1csc2c1CC(NC)CC2 (stereo not drawn) [Compound 207, 3-ethyl-N-methyl-4,5,6,7-tetrahydrobenzothiophen-5-amine hydrochloride] | > 3 mg/kg | ND (^ <4%) | ND (^ <4%) | ND (^ <4%) | ND (^ <4%) | ND (^ <4%) | ND (^ <4%) | ND (^ <4%) | ND (^ <4%) | ND (^ <4%) | ND (^ <4%) | + (≥4%)
CCc1csc2c1CC(N)CC2 (stereo not drawn) [Compound 208, 3-ethyl-4,5,6,7-tetrahydrobenzothiophen-5-amine hydrochloride] | > 3 mg/kg | ND (^ <4%) | ND (^ <4%) | ND (^ <4%) | ND (^ <4%) | ND (^ <4%) | ND (^ <4%) | ND (^ <4%) | ND (^ <4%) | ND (^ <4%) | ND (^ <4%) | + (≥4%)
NC1CCc2c(F)csc2C1 (stereo not drawn) [Compound 209, 3-fluoro-4,5,6,7-tetrahydrobenzothiophen-6-amine hydrochloride] | < 3 mg/kg | ++ (≥24%) | ND (^ <4%) | ND (^ <4%) | + (≥4%) | +++ (≥49%) | + (≥4%) | ND (^ <4%) | ND (^ <4%) | ND (^ <4%) | ND (^ <4%) | ND (^ <4%)
Cc1sc2c(c1F)CC(N)CC2 (stereo not drawn) [Compound 214, 3-fluoro-2-methyl-4,5,6,7-tetrahydrobenzothiophen-5-amine hydrochloride] | > 3 mg/kg | ND (^ <4%) | ND (^ <4%) | ND (^ <4%) | ND (^ <4%) | ND (^ <4%) | ND (^ <4%) | ND (^ <4%) | ND (^ <4%) | ND (^ <4%) | ND (^ <4%) | + (≥4%)
NC1COc2c(Cl)csc2C1 (stereo not drawn) [Compound 215, 3-chloro-6,7-dihydro-5H-thieno[3,2-b]pyran-6-amine hydrochloride] | 3 mg/kg | ND (^ <4%) | ND (^ <4%) | ND (^ <4%) | + (≥4%) | +++ (≥49%) | ND (^ <4%) | ND (^ <4%) | ND (^ <4%) | ND (^ <4%) | ND (^ <4%) | ND (^ <4%)
NC1CCc2sc(Cl)cc2C1 (stereo not drawn) [Compound 216, 2-chloro-4,5,6,7-tetrahydrobenzothiophen-5-amine hydrochloride] | > 3 mg/kg | ND (^ <4%) | ND (^ <4%) | ND (^ <4%) | ND (^ <4%) | ++ (≥24%) | ND (^ <4%) | ND (^ <4%) | ND (^ <4%) | ND (^ <4%) | ND (^ <4%) | + (≥4%)
NC1CCc2c(Cl)csc2C1 (stereo not drawn) [Compound 217, 3-chloro-4,5,6,7-tetrahydrobenzothiophen-6-amine hydrochloride] | < 3 mg/kg | ND (^ <4%) | ND (^ <4%) | ND (^ <4%) | + (≥4%) | ++ (≥24%) | ND (^ <4%) | + (≥4%) | ND (^ <4%) | ++ (≥24%) | ND (^ <4%) | + (≥4%)
NC1CCc2sc(Cl)c(Cl)c2C1 (stereo not drawn) [Compound 219, 2,3-dichloro-4,5,6,7-tetrahydrobenzothiophen-5-amine hydrochloride] | > 3 mg/kg | ND (^ <4%) | ND (^ <4%) | ND (^ <4%) | ND (^ <4%) | ND (^ <4%) | ND (^ <4%) | ND (^ <4%) | ND (^ <4%) | ND (^ <4%) | ND (^ <4%) | ++ (≥24%)
CNC1CCc2sc(Cl)c(Cl)c2C1 (stereo not drawn) [Compound 220, 2,3-dichloro-N-methyl-4,5,6,7-tetrahydrobenzothiophen-5-amine hydrochloride] | > 3 mg/kg | ND (^ <4%) | ND (^ <4%) | ND (^ <4%) | ND (^ <4%) | ND (^ <4%) | ND (^ <4%) | ND (^ <4%) | ND (^ <4%) | ND (^ <4%) | ND (^ <4%) | ++ (≥24%)
NC1COc2c(C(F)(F)F)csc2C1 (stereo not drawn) [Compound 221, 3-(trifluoromethyl)-6,7-dihydro-5H-thieno[3,2-b]pyran-6-amine hydrochloride] | 3 mg/kg | ND (^ <4%) | ND (^ <4%) | + (≥4%) | ND (^ <4%) | ++ (≥24%) | ND (^ <4%) | + (≥4%) | ND (^ <4%) | ND (^ <4%) | ND (^ <4%) | ++ (≥24%)
CNC1COc2c(Cl)csc2C1 (stereo not drawn) [Compound 222, 3-chloro-N-methyl-6,7-dihydro-5H-thieno[3,2-b]pyran-6-amine hydrochloride] | < 3 mg/kg | ND (^ <4%) | ND (^ <4%) | ND (^ <4%) | ++++ (≥74%) | ND (^ <4%) | ND (^ <4%) | ND (^ <4%) | ND (^ <4%) | ND (^ <4%) | ND (^ <4%) | ND (^ <4%)
CNC1COc2c(F)csc2C1 (stereo not drawn) [Compound 225, 3-fluoro-N-methyl-6,7-dihydro-5H-thieno[3,2-b]pyran-6-amine hydrochloride] | < 3 mg/kg | ND (^ <4%) | ND (^ <4%) | ND (^ <4%) | ++++ (≥74%) | ND (^ <4%) | ND (^ <4%) | ND (^ <4%) | ND (^ <4%) | ND (^ <4%) | ND (^ <4%) | ND (^ <4%)
